According to PubChem BioAssay (NCI):
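All cell lines were grown in 96-well plates and treated with compound for 48 hours. GI50 is the concentration that inhibits growth by half. At the TGI there is no net growth.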

Experiments:
Experiment in all cases: NCI tumour cell line growth inhibition, 48 h
MOLT-4 leukemia = tested on: MOLT-4 leukemia
OVCAR-8 ovarian = tested on: OVCAR-8 ovarian
PC-3 prostate = tested on: PC-3 prostate
SF-268 CNS = tested on: SF-268 CNS
SF-539 CNS = tested on: SF-539 CNS
SK-MEL-2 melanoma = tested on: SK-MEL-2 melanoma
SN12C renal = tested on: SN12C renal
SW-620 colon = tested on: SW-620 colon
T-47D breast = tested on: T-47D breast

SMILES | GI50 (MOLT-4 leukemia) [µM] | TGI (MOLT-4 leukemia) [µM] | GI50 (OVCAR-8 ovarian) [µM] | TGI (OVCAR-8 ovarian) [µM] | GI50 (PC-3 prostate) [µM] | TGI (PC-3 prostate) [µM] | GI50 (SF-268 CNS) [µM] | TGI (SF-268 CNS) [µM] | GI50 (SF-539 CNS) [µM] | TGI (SF-539 CNS) [µM] | GI50 (SK-MEL-2 melanoma) [µM] | TGI (SK-MEL-2 melanoma) [µM] | GI50 (SN12C renal) [µM] | TGI (SN12C renal) [µM] | GI50 (SW-620 colon) [µM] | TGI (SW-620 colon) [µM] | GI50 (T-47D breast) [µM] | TGI (T-47D breast) [µM]
O=c1cc(-c2ccccc2)oc2cc(OC/C(=N/O)c3ccccc3)ccc12 | > 50 | > 50 | 32.8 | > 50 | 9.4 | 38.4 | 11.5 | 31 | 10.8 | 23.6 | 20.2 | > 50 | 10.9 | 44.6 | > 50 | > 50 | > 50 | > 50
Cc1cc(Cl)cc2c1NC(=O)C2(O)CC(=O)c1ccco1 (centres undefined) |  | 81.2 |  | > 100 |  | > 100 |  | > 100 |  | > 100 |  | > 100 |  | > 100 |  | > 100 |  | > 100
COc1ccc(-c2nc(-c3nc4ccc(Cl)cc4[nH]3)c3ccccn23)cc1 | > 100 | > 100 | 2.4 | 6.69 | 2.13 | 5.63 | 2.93 | 9.07 | 1.76 | 3.61 | 2.71 | 8.76 | 3.75 | 17.8 | 4.07 | 22.5 | 3.66 | 20.2
O=C(O)CCNC1CCCCC1 | > 100 | > 100 | > 100 | > 100 | > 100 | > 100 | > 100 | > 100 | > 100 | > 100 | > 100 | > 100 | > 100 | > 100 | > 100 | > 100 | > 100 | > 100
Cc1ccc2c(c1)Sc1c(ccc3ccccc13)N2 | 6.82 | > 100 | 35 | > 100 | 11.5 | > 100 | 69.2 | > 100 | 20.7 | > 100 | > 100 | > 100 | > 100 | > 100 | > 100 | > 100 | 38.3 | > 100
O=C(CCc1nnc2sc(-c3ccc(Cl)cc3Cl)nn12)c1nc2ccccc2[nH]1 | 0.29 |  | 1.48 | > 23.4 | 0.865 | 3.62 | 0.994 | 2.85 | 1.98 | 4.63 | 1.78 | 5.4 | 1.41 | 4.22 | 0.229 | 0.744 | 0.916 | 2.92
CC1CN1C(=O)NCCCCCCNC(=O)N1CC1C (centres undefined) |  | > 100 |  | > 100 |  | > 100 |  | > 100 |  | 98.2 |  | > 100 |  | > 100 |  | > 100 |  | > 100
O=C1c2ccccc2C(=O)N1CCc1ncc[nH]1 |  | > 100 |  | > 100 |  | > 100 |  | > 100 |  | > 100 |  | > 100 |  | > 100 |  | > 100 |  | > 100
CCCCCCCC[C@@H](O)CC(=O)N[C@@H](CC(N)=O)C(=O)N[C@@H](CCC(N)=O)C(=O)N[C@@H](CC(=O)c1cc(C)cc(O)c1C(=O)c1c(O)cccc1O)CC(C)C | 0.308 | > 100 | 3.23 | 46.6 | 0.31 | 47.9 | 0.374 | 2.55 | 0.253 | 0.783 | 2.76 | 8.32 | 2.13 | 15.8 | 0.426 | 23.6 | 1.15 | 4.51
O=C(O)c1nn(-c2ccccc2-c2n[nH]c(=O)[nH]c2=O)c(=O)[nH]c1=O |  | > 100 |  | > 100 |  | > 100 |  | > 100 |  | > 100 |  | > 100 |  | > 100 |  | > 100 |  | > 100
Cc1ccc(C(=O)NC(C)C)cc1-c1ccc(C(=O)NCC2CC2)cc1 | > 25 | > 25 | > 25 | > 25 | > 25 | > 25 | > 25 | > 25 | > 25 | > 25 | > 25 | > 25 | > 25 | > 25 | > 25 | > 25 | 16.5 | > 25
Nc1nccc(-c2c(-c3ccc(F)cc3)ncn2C2CCC(O)CC2)n1 (centres undefined) | 22.5 | > 25 | 12.3 | > 25 | 13.3 | > 25 | 10.2 | > 25 | > 23.2 | > 25 | 24.7 | > 25 | 6.72 | > 25 | 13.6 | > 25 | 3.56 | > 19
